Experimental findings from ChEMBL document CHEMBL4419163, “Assays for identifying compounds that modulate bitter taste” (2014) are described below.

What all share (assay type): functional, cell-based
In test [1] the target is T1, Taste receptor type 2 member 38 (Homo sapiens) (UniProt P59533).
T1 sequence (whole entry): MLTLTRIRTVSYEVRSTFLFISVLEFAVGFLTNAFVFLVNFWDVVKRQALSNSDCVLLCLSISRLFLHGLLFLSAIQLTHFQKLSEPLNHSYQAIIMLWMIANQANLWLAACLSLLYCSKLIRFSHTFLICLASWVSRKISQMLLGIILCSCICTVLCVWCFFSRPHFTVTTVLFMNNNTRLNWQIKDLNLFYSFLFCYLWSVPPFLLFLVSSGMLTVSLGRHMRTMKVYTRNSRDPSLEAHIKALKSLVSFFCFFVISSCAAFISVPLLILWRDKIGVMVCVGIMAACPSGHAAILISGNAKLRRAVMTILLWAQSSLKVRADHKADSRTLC
The test can be described thus: Agonist activity at human TAS2R38 expressed in HEK293T cells co-expressing Galpha15 assessed as increase in intracellular calcium level at 20 mM by Calcium-3 dye based fluorescence assay relative to control. On the technique in general: Calcium flux is commonly read through the fluorescence of an indicator in the cells.

Test [2] has as its target T2, Taste receptor type 2 member 8 (Homo sapiens) (UniProt Q9NYW2).
T2 sequence (whole entry): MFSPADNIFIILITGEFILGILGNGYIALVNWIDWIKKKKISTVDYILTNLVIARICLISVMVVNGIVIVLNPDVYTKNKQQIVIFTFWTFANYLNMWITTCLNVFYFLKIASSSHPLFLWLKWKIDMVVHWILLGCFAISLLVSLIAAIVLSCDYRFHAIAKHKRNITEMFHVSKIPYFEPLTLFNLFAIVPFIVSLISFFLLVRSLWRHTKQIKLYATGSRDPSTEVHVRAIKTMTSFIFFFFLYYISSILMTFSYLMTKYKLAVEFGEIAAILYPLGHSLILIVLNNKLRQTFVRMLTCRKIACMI
The test can be described thus: Agonist activity at human TAS2R8 expressed in HEK293T cells co-expressing Galpha15 assessed as increase in intracellular calcium level at 20 mM by Calcium-3 dye based fluorescence assay relative to control.

Test [3] has as its target T3, Taste receptor type 2 member 4 (Homo sapiens) (UniProt Q9NYW5).
T3 sequence (whole entry): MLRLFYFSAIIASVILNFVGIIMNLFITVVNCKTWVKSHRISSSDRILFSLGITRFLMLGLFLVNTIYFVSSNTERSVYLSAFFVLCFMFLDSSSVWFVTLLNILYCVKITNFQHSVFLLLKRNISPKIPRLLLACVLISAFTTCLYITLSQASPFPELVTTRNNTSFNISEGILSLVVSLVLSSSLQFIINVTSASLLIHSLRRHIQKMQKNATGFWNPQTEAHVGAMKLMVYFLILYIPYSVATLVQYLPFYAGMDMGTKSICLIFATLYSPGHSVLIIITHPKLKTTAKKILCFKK
The experiment in a line: Agonist activity at human TAS2R4 expressed in HEK293T cells co-expressing Galpha15 assessed as increase in intracellular calcium level at 20 mM by Calcium-3 dye based fluorescence assay relative to control.

Test [4] has as its target T4, Taste receptor type 2 member 42 (Homo sapiens) (UniProt Q7RTR8).
T4 sequence (whole entry): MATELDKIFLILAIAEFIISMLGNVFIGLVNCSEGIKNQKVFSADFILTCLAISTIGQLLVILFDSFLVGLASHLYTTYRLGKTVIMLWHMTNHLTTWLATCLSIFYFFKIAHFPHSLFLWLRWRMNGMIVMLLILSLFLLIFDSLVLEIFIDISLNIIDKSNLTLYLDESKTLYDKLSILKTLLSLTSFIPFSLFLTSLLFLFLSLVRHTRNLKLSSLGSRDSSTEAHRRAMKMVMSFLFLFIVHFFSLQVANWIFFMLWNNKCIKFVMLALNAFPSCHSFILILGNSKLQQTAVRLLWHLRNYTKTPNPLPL
The test can be described thus: Agonist activity at human TAS2R55 expressed in HEK293T cells co-expressing Galpha15 assessed as increase in intracellular calcium level at 20 mM by Calcium-3 dye based fluorescence assay relative to control.

Test [5] deals with T5, Taste receptor type 2 member 19 (Homo sapiens) (UniProt P59542).
T5 sequence (whole entry): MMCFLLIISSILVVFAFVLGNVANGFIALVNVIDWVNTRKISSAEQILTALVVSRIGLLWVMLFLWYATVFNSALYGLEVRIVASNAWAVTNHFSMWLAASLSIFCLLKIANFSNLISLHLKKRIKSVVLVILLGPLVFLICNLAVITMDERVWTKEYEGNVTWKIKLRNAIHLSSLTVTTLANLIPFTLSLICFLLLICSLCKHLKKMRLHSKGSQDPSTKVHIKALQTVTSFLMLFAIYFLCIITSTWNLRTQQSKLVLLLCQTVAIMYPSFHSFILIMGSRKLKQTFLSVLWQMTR
The test can be described thus: Agonist activity at human TAS2R48 expressed in HEK293T cells co-expressing Galpha15 assessed as increase in intracellular calcium level at 20 mM by Calcium-3 dye based fluorescence assay relative to control.

Test [6] deals with T6, Taste receptor type 2 member 1 (Homo sapiens) (UniProt Q9NYW7).
T6 sequence (whole entry): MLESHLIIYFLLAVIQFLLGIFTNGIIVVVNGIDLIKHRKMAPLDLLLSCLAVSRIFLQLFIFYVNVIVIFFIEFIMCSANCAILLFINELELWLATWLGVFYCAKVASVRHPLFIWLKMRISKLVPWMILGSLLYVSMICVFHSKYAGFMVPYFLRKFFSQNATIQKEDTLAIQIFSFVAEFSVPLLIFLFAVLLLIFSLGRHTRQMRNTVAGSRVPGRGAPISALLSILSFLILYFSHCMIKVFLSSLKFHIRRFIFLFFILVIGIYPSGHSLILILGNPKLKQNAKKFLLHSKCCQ
The experiment in a line: Agonist activity at human TAS2R1 expressed in HEK293T cells co-expressing Galpha15 assessed as increase in intracellular calcium level at 20 mM by Calcium-3 dye based fluorescence assay relative to control.

Test [7] deals with T7, Taste receptor type 2 member 30 (Homo sapiens) (UniProt P59541).
T7 sequence (whole entry): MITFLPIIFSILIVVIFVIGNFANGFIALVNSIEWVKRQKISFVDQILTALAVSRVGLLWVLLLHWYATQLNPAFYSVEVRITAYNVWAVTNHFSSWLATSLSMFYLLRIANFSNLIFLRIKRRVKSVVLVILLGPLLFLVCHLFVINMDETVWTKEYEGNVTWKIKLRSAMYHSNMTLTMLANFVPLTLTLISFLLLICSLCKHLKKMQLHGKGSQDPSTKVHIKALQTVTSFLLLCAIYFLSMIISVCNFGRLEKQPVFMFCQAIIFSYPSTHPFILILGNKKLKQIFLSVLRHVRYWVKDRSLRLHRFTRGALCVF
The experiment in a line: Agonist activity at human TAS2R47 expressed in HEK293T cells co-expressing Galpha15 assessed as increase in intracellular calcium level at 20 mM by Calcium-3 dye based fluorescence assay relative to control.

For `[Cl-].[K+]` [POTASSIUM CHLORIDE], the Activity was less than 40% in test [1]; less than 40% in test [2]; more than 40% in test [3]; less than 40% in test [4]; less than 40% in test [5]; less than 40% in test [6]. The Activity in test [7] is less than 40%.
For the compound `CC1=CC(=O)NS(=O)(=O)O1`, the Activity in test [1] is less than 40%; in test [2], less than 40%; in test [3] it was more than 40%; in test [4] it was less than 40%; in test [5], less than 40%; in test [6], more than 40%. Also, the Activity in test [7] is less than 40%.
In the case of `CC(O)C(=O)[O-].[K+]` (stereo unspecified), the Activity in test [1] is less than 40%; in test [2], less than 40%; in test [3], more than 40%; in test [4] it was less than 40%; in test [5] it was less than 40%; in test [6] it was less than 40%. Further, the Activity in test [7] was less than 40%.
